Source: the supplement of paper PMC10307832

Key:
Test in all cases: relative viability (nuclei count vs DMSO), 5 days (fraction); higher = more cells survive
Obatoclax + Trametinib = compound: COC1=CC(c2cc3ccccc3[nH]2)=N/C1=C\c1[nH]c(C)cc1C [Obatoclax] + CC(=O)Nc1cccc(-n2c(=O)n(C3CC3)c(=O)c3c(Nc4ccc(I)cc4F)n(C)c(=O)c(C)c32)c1 [Trametinib] (partner 0.02 µM)
How it was run: (§1)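 Dosing by pin tool came one day after lung cancer cell lines were seeded in 1536-well plates, using either one drug or a fixed anchor-drug dose plus five library-drug doses (not always all listed) in √10 steps. After 5 days, nuclei were counted on 4× images. Relative viability is treated-well nuclei count divided by vehicle-well nuclei count, and values are medians of duplicate plates.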

Bortezomib + Lapatinib = compound: CC(C)C[C@H](NC(=O)[C@H](Cc1ccccc1)NC(=O)c1cnccn1)B(O)O [Bortezomib] + CS(=O)(=O)CCNCc1ccc(-c2ccc3ncnc(Nc4ccc(OCc5cccc(F)c5)c(Cl)c4)c3c2)o1 [Lapatinib] (partner 2 µM)
How it was run: as §1

Obatoclax + Dasatinib = compound: COC1=CC(c2cc3ccccc3[nH]2)=N/C1=C\c1[nH]c(C)cc1C [Obatoclax] + Cc1nc(Nc2ncc(C(=O)Nc3c(C)cccc3Cl)s2)cc(N2CCN(CCO)CC2)n1 [Dasatinib] (partner 0.075 µM)
How it was run: as §1

Obatoclax + AZD7762 = compound: COC1=CC(c2cc3ccccc3[nH]2)=N/C1=C\c1[nH]c(C)cc1C [Obatoclax] + NC(=O)Nc1cc(-c2cccc(F)c2)sc1C(=O)N[C@H]1CCCNC1 [AZD7762] (partner 0.2 µM)
How it was run: as §1

Cell Line | relative viability (Obatoclax + Trametinib; first compound 0.01 µM) | relative viability (Obatoclax + Trametinib; first compound 0.03162 µM) | relative viability (Obatoclax + Trametinib; first compound 0.1 µM) | relative viability (Obatoclax + Trametinib; first compound 0.3162 µM) | relative viability (Obatoclax + Trametinib; first compound 1 µM) | relative viability (Bortezomib + Lapatinib; first compound 0.0002 µM) | relative viability (Bortezomib + Lapatinib; first compound 0.000632 µM) | relative viability (Bortezomib + Lapatinib; first compound 0.002 µM) | relative viability (Bortezomib + Lapatinib; first compound 0.006325 µM) | relative viability (Bortezomib + Lapatinib; first compound 0.02 µM) | relative viability (Obatoclax + Dasatinib; first compound 0.01 µM) | relative viability (Obatoclax + Dasatinib; first compound 0.03162 µM) | relative viability (Obatoclax + Dasatinib; first compound 0.1 µM) | relative viability (Obatoclax + Dasatinib; first compound 0.3162 µM) | relative viability (Obatoclax + Dasatinib; first compound 1 µM) | relative viability (Obatoclax + AZD7762; first compound 0.01 µM) | relative viability (Obatoclax + AZD7762; first compound 0.03162 µM) | relative viability (Obatoclax + AZD7762; first compound 0.1 µM) | relative viability (Obatoclax + AZD7762; first compound 0.3162 µM) | relative viability (Obatoclax + AZD7762; first compound 1 µM)
201T | 0.713 | 0.737 | 0.776 | 0.722 | 0.752 | 1.01 | 0.99 | 1.06 | 1.05 | 0.512 | 0.599 | 0.412 | 0.588 | 0.569 | 0.6 | 0.608 | 0.601 | 0.579 | 0.614 | 0.702
A549 | – | – | – | – | – | 0.981 | 0.872 | 0.957 | 0.0567 | 0.0601 | – | – | – | – | – | – | – | – | – | –
A-427 | 0.785 | 0.689 | 0.849 | 0.729 | 0.621 | 1.05 | 0.975 | 1.11 | 1.02 | 0.19 | 0.719 | 0.687 | 0.462 | 0.6 | 0.271 | 0.746 | 0.757 | 0.496 | 0.467 | 0.441
ABC-1 | – | – | – | – | – | 0.941 | 1.06 | 0.605 | 0.606 | 0.495 | 0.498 | 0.55 | 0.369 | 0.551 | 0.375 | 0.639 | 0.749 | – | 0.817 | 0.839
BEN | 1.01 | 1.01 | 0.861 | 0.944 | 1.03 | 0.72 | 0.74 | 0.61 | 0.339 | 0.114 | 0.321 | 0.312 | – | 0.41 | 0.272 | 0.762 | 0.607 | 0.544 | 0.734 | 0.704
CAL-12T | 0.337 | 0.431 | 0.47 | 0.246 | 0.14 | 0.683 | 0.617 | 0.561 | 0.246 | 0.201 | 0.419 | 0.414 | 0.426 | 0.0751 | 0.0688 | 0.616 | 0.554 | 0.531 | 0.518 | 0.294
COR-L23 | 0.541 | 0.607 | 0.44 | 0.252 | 0.194 | 0.814 | 1.1 | 0.771 | 0.0607 | 0.0542 | 0.494 | 0.488 | 0.416 | 0.285 | 0.163 | – | – | – | – | –
COR-L 105 | 0.44 | 0.434 | 0.493 | 0.4 | 0.373 | 0.358 | 0.354 | 0.334 | 0.344 | 0.349 | 0.4 | 0.358 | 0.372 | 0.265 | 0.246 | – | – | – | – | –
Calu-6 | – | – | – | – | – | 0.961 | 1.03 | 1.02 | 0.138 | 0.109 | – | – | – | – | – | – | – | – | – | –
ChaGo-K-1 | 0.951 | 0.846 | 0.869 | 0.894 | 0.878 | – | – | – | – | – | 0.637 | 0.582 | 0.502 | 0.584 | 0.644 | 0.892 | 0.88 | 0.831 | 0.881 | 0.914
EBC-1 | – | – | – | – | – | 0.221 | 0.228 | 0.204 | 0.164 | 0.151 | – | – | – | – | – | – | – | – | – | –
